In PubChem BioAssay AID1259407 (Chemical Carcinogenesis Research Information System (CCRIS), 2018):
The source made the active and inactive calls. How the calls were made is not given here.

System: CCRIS mutagenicity, Ames/micronucleus/aberration tests
Assay: CCRIS mutagenicity studies
[1] = Test System: AMES SALMONELLA TYPHIMURIUM, Strain/Indicator: TA100, Metabolic Activation: NONE, Method: STANDARD PLATE

Measured: mutagenic call

CCNC(=O)NC(=O)/C(C#N)=N/OC
inactive: End Point: In vivo micronucleus, Test System: Bone marrow polychromatic erythrocytes, Species: Mouse, Strain/Sex: Female, Route: Oral (gavage) inactive; negative, significant toxicity (m and f) and early deaths (f only) as high dose | End Point: In vivo micronucleus, Test System: Bone marrow polychromatic erythrocytes, Species: Mouse, Strain/Sex: Male, Route: Oral (gavage) inactive; negative, significant toxicity (m and f) and early deaths (f only) as high dose | Test System: Ames Salmonella typhimurium, Strain/Indicator: TA97, Metabolic Activation: None, Method: Plate incorporation inactive; negative, testing into the cytotoxic range. | Test System: Ames Salmonella typhimurium, Strain/Indicator: TA97, Metabolic Activation: S-9 (DPR evaluator did not provide additional information), Method: Plate incorporation inactive; negative, testing into the cytotoxic range. | Test System: Ames Salmonella typhimurium, Strain/Indicator: TA98, Metabolic Activation: None, Method: Plate incorporation inactive; negative, testing into the cytotoxic range. | Test System: Ames Salmonella typhimurium, Strain/Indicator: TA98, Metabolic Activation: S-9 (DPR evaluator did not provide additional information), Method: Plate incorporation inactive; negative, testing into the cytotoxic range. | Test System: Ames Salmonella typhimurium, Strain/Indicator: TA100, Metabolic Activation: None, Method: Plate incorporation inactive; negative, testing into the cytotoxic range. | Test System: Ames Salmonella typhimurium, Strain/Indicator: TA100, Metabolic Activation: S-9 (DPR evaluator did not provide additional information), Method: Plate incorporation inactive; negative, testing into the cytotoxic range. | Test System: Ames Salmonella typhimurium, Strain/Indicator: TA1535, Metabolic Activation: None, Method: Plate incorporation inactive; negative, testing into the cytotoxic range. | Test System: Ames Salmonella typhimurium, Strain/Indicator: TA1535, Metabolic Activation: S-9 (DPR evaluator did not provide additional information), Method: Plate incorporation inactive; negative, testing into the cytotoxic range. | Test System: Chinese hamster ovary cells, Strain/Indicator: CHO Cells (HPRT) /6-Thioguanine, Metabolic Activation: None, Method: Preincubation inactive; negative | Test System: Chinese hamster ovary cells, Strain/Indicator: CHO Cells (HPRT)/6-Thioguanine, Metabolic Activation: S-9 (DPR evaluator did not provide additional information), Method: Preincubation inactive; negative | Test System: Male rat spermatocytes, Strain/Indicator: Thymidine incorporation, Metabolic Activation: None, Method: Autoradiography inactive; negative, mortality and clinical signs of toxicity observed. | Test System: UDS Male rat hepatocytes, Strain/Indicator: Thymidine incorporation, Metabolic Activation: None, Method: Autoradiography inactive; negative, mortality and clinical signs of toxicity observed.
active: End Point: In vitro chromosomal aberrations, Test System: Human lymphocytes, Metabolic Activation: None active; positive (structural changes) | End Point: In vitro chromosomal aberrations, Test System: Human lymphocytes, Metabolic Activation: S-9 (DPR evaluator did not provide additional details) active; positive (structural changes) | Test System: UDS Rat hepatocytes, Strain/Indicator: Thymidine incorporation, Metabolic Activation: None, Method: Autoradiography active; positive, statistically significant but no linear dose response.

CCCCNC(=O)c1cc(N)ccc1OC1CCCCC1
inactive: Test System: Ames Salmonella typhimurium, Strain/Indicator: TA98, Metabolic Activation: None, Method: Preincubation inactive; negative. data given only in abstract. | Test System: Ames Salmonella typhimurium, Strain/Indicator: TA100, Metabolic Activation: None, Method: Preincubation inactive; negative. data given only in abstract. | Test System: Ames Salmonella typhimurium, Strain/Indicator: TA102, Metabolic Activation: None, Method: Preincubation inactive; negative. data given only in abstract. | Test System: Ames Salmonella typhimurium, Strain/Indicator: TA1535, Metabolic Activation: None, Method: Preincubation inactive; negative. data given only in abstract. | Test System: Ames Salmonella typhimurium, Strain/Indicator: TA1537, Metabolic Activation: None, Method: Preincubation inactive; negative. data given only in abstract.
active: Test System: Ames Salmonella typhimurium, Strain/Indicator: TA98, Metabolic Activation: Rat, Liver, S-9, Phenobarbital and beta-naphthoflavone, Method: Preincubation active; positive. a hydroxylated form of pa7 appears to be the active component. | Test System: Ames Salmonella typhimurium, Strain/Indicator: TA100, Metabolic Activation: Rat, Liver, S-9, Phenobarbital and beta-naphthoflavone, Method: Preincubation active; positive. a hydroxylated form of pa7 appears to be the active component.

c1cc2ccc3nc4ccccc4c4ccc(c1)c2c34
active: Test System: AMES SALMONELLA TYPHIMURIUM, Strain/Indicator: TA98, Metabolic Activation: S-9 active; positive | Test System: AMES SALMONELLA TYPHIMURIUM, Strain/Indicator: TA100, Metabolic Activation: S-9 active; positive
inactive: Test System: AMES SALMONELLA TYPHIMURIUM, Strain/Indicator: TA98, Metabolic Activation: NONE inactive; negative | Test System: AMES SALMONELLA TYPHIMURIUM, Strain/Indicator: TA100, Metabolic Activation: NONE inactive; negative

OCCNCCO
inactive: End Point: IN VITRO CHROMOSOMAL ABERRATIONS, Test System: CHO CELLS, Metabolic Activation: NONE inactive; negative | End Point: IN VITRO CHROMOSOMAL ABERRATIONS, Test System: CHO CELLS, Metabolic Activation: RAT, LIVER, S-9, AROCLOR 1254 inactive; negative; weak response at highest dose | Test System: AMES SALMONELLA TYPHIMURIUM, Strain/Indicator: TA98, Metabolic Activation: HAMSTER, LIVER, S-9, AROCLOR 1254, Method: PREINCUBATION inactive; negative | Test System: AMES SALMONELLA TYPHIMURIUM, Strain/Indicator: TA98, Metabolic Activation: NONE, Method: PREINCUBATION inactive; negative | Test System: AMES SALMONELLA TYPHIMURIUM, Strain/Indicator: TA98, Metabolic Activation: RAT, LIVER, S-9, AROCLOR 1254, Method: PREINCUBATION inactive; negative | Test System: AMES SALMONELLA TYPHIMURIUM, Strain/Indicator: TA100, Metabolic Activation: HAMSTER, LIVER, S-9, AROCLOR 1254, Method: PREINCUBATION inactive; negative | Test System: AMES SALMONELLA TYPHIMURIUM, Strain/Indicator: TA100, Metabolic Activation: NONE, Method: PREINCUBATION inactive; negative | Test System: AMES SALMONELLA TYPHIMURIUM, Strain/Indicator: TA100, Metabolic Activation: RAT, LIVER, S-9, AROCLOR 1254, Method: PREINCUBATION inactive; negative | Test System: AMES SALMONELLA TYPHIMURIUM, Strain/Indicator: TA1535, Metabolic Activation: HAMSTER, LIVER, S-9, AROCLOR 1254, Method: PREINCUBATION inactive; negative | Test System: AMES SALMONELLA TYPHIMURIUM, Strain/Indicator: TA1535, Metabolic Activation: NONE, Method: PREINCUBATION inactive; negative | Test System: AMES SALMONELLA TYPHIMURIUM, Strain/Indicator: TA1535, Metabolic Activation: RAT, LIVER, S-9, AROCLOR 1254, Method: PREINCUBATION inactive; negative | Test System: AMES SALMONELLA TYPHIMURIUM, Strain/Indicator: TA1537, Metabolic Activation: HAMSTER, LIVER, S-9, AROCLOR 1254, Method: PREINCUBATION inactive; negative | Test System: AMES SALMONELLA TYPHIMURIUM, Strain/Indicator: TA1537, Metabolic Activation: NONE, Method: PREINCUBATION inactive; negative | Test System: AMES SALMONELLA TYPHIMURIUM, Strain/Indicator: TA1537, Metabolic Activation: RAT, LIVER, S-9, AROCLOR 1254, Method: PREINCUBATION inactive; negative

COC(=O)Nc1nc2ccc(OS(=O)(=O)c3ccc(F)cc3)cc2[nH]1
inactive: Test System: AMES SALMONELLA TYPHIMURIUM, Strain/Indicator: TA98, Metabolic Activation: NONE, Method: STANDARD PLATE inactive; negative | Test System: AMES SALMONELLA TYPHIMURIUM, Strain/Indicator: TA98, Metabolic Activation: RAT, LIVER, S-9, AROCLOR 1254, Method: STANDARD PLATE inactive; negative | [1] inactive; negative | Test System: AMES SALMONELLA TYPHIMURIUM, Strain/Indicator: TA100, Metabolic Activation: RAT, LIVER, S-9, AROCLOR 1254, Method: STANDARD PLATE inactive; negative | Test System: AMES SALMONELLA TYPHIMURIUM, Strain/Indicator: TA1535, Metabolic Activation: NONE, Method: STANDARD PLATE inactive; negative | Test System: AMES SALMONELLA TYPHIMURIUM, Strain/Indicator: TA1535, Metabolic Activation: RAT, LIVER, S-9, AROCLOR 1254, Method: STANDARD PLATE inactive; negative | Test System: AMES SALMONELLA TYPHIMURIUM, Strain/Indicator: TA1538, Metabolic Activation: NONE, Method: STANDARD PLATE inactive; negative | Test System: AMES SALMONELLA TYPHIMURIUM, Strain/Indicator: TA1538, Metabolic Activation: RAT, LIVER, S-9, AROCLOR 1254, Method: STANDARD PLATE inactive; negative | Test System: E. COLI, Strain/Indicator: WP2, Metabolic Activation: NONE, Method: STANDARD PLATE inactive; negative | Test System: E. COLI, Strain/Indicator: WP2, Metabolic Activation: RAT, LIVER, S-9, AROCLOR 1254, Method: STANDARD PLATE inactive; negative | Test System: E. COLI, Strain/Indicator: WP2 UVRA (PKM101), Metabolic Activation: NONE, Method: STANDARD PLATE inactive; negative | Test System: E. COLI, Strain/Indicator: WP2 UVRA (PKM101), Metabolic Activation: RAT, LIVER, S-9, AROCLOR 1254, Method: STANDARD PLATE inactive; negative | Test System: E. COLI, Strain/Indicator: WP2 UVRA, Metabolic Activation: NONE, Method: STANDARD PLATE inactive; negative | Test System: E. COLI, Strain/Indicator: WP2 UVRA, Metabolic Activation: RAT, LIVER, S-9, AROCLOR 1254, Method: STANDARD PLATE inactive; negative

c1ccc2c(c1)C1=c3c-2cc2cccc4ccc(c3c42)C2OC12 (configuration not stated)
active: [1] active; positive
